“Also recorded” adds a separate entry of the source.
System: neurosphere (neural stem cells and/or neural progenitor cells induced from human pluripotent stem cells)
Experiment: Functional evaluation of fatty acid (oleic acid) added to human serum albumin-added medium: neurosphere morphology
Type: cell-based
Conditions: 14 days' culturing
Method: Similar to Example 1, 2.1 mg/mL human serum albumin-added medium was produced. A medium was produced by adding oleic acid (Tokyo Chemical Industry Co., Ltd.) at a final concentration of 20 μM or 60 μM to this medium, and a medium without addition of oleic acid was produced, and neurospheres were cultured in these media. […] The medium was exchanged every 7 days and, after 14 days' culturing, the morphology of the neurosphere formed was observed under a microscope.

## CCCCCCCC/C=C\CCCCCCCC(=O)O [oleic acid]
20 μM oleic acid in 2.1 mg/mL human serum albumin-added medium
  morphology of the neurosphere formed: showed a good neurosphere form
60 μM oleic acid in 2.1 mg/mL human serum albumin-added medium
  morphology of the neurosphere formed: show a black sphere with an irregular shape; also recorded: Many black sphere images with an irregular shape were confirmed

From US20180016554A1, “HUMAN SERUM ALBUMIN-CONTAINING CULTURE MEDIUM FOR GROWTH OF NEURAL STEM CELLS” (AJINOMOTO CO., INC., priority 2015, published 2018)
